In ChEMBL document CHEMBL1201862, “PubChem BioAssay data set” (2004):
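These data come from cells grown in 96-well plates and exposed to compound for 48 hours at five concentrations. The concentration for 50% growth inhibition is given as GI50.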 Active and inactive are the calls of the source. Cut-off read from the data, not from the text of the source: active = GI50 up to about 1.1 µM and inactive = higher.

Legend:
Assay in all cases: NCI tumour cell line growth inhibition, 48 h
NCI-H460 = tested on: NCI-H460
DMS-273 = tested on: DMS-273
NCI-H23 = tested on: NCI-H23
SN12C = tested on: SN12C
OVCAR-3 = tested on: OVCAR-3
CAKI-1 = tested on: CAKI-1
SF-268 = tested on: SF-268
XF498 = tested on: XF498
LXFL 529 = tested on: LXFL 529
HOP-18 = tested on: HOP-18
Malme-3M = tested on: Malme-3M
UO-31 = tested on: UO-31
UACC-257 = tested on: UACC-257
DMS-114 = tested on: DMS-114
HCC 2998 = tested on: HCC 2998

Measured: GI50

COc1ccc(/C(Cl)=C(\CN(C)C)c2ccc(OC)c(OC)c2)cc1OC
inactive: NCI-H460 > 100 µM | DMS-273 > 100 µM | NCI-H23 > 100 µM | SN12C > 100 µM | OVCAR-3 > 100 µM | CAKI-1 > 100 µM | SF-268 > 100 µM | XF498 19.8 µM | LXFL 529 > 100 µM | HOP-18 > 100 µM | Malme-3M > 100 µM | UO-31 > 100 µM

O=C(Nc1ccc(Cl)cc1)c1cc2cc(/N=N/c3ccccc3Cl)ccc2oc1=O
inactive: NCI-H460 26.8 µM | NCI-H23 13.3 µM | UACC-257 19.2 µM | SN12C 18.7 µM | OVCAR-3 22.2 µM | CAKI-1 24.9 µM | SF-268 15.2 µM | DMS-114 5.81 µM | HCC 2998 18.9 µM | XF498 24.4 µM | LXFL 529 8.11 µM | HOP-18 33.8 µM | Malme-3M 18.5 µM | UO-31 11.6 µM

CCCC[S+]([O-])CC(CO)NC(=O)/C=C/c1c(C)[nH]c(=O)[nH]c1=O (configuration not stated)
inactive: NCI-H460 3.12 µM | DMS-273 9.75 µM | NCI-H23 7.98 µM | UACC-257 11 µM | SN12C 5.92 µM | OVCAR-3 5 µM | CAKI-1 18.9 µM | SF-268 2.42 µM | DMS-114 6.41 µM | HCC 2998 8.28 µM | XF498 4.18 µM | HOP-18 31.6 µM | Malme-3M 3.14 µM | UO-31 13.3 µM

CSc1nc(NC2OCC(OC(C)=O)C(OC(C)=O)C2OC(C)=O)c(/N=C(\C)C(C)=O)c(=O)[nH]1 (configuration not stated)
inactive: NCI-H460 > 100 µM | DMS-273 > 100 µM | NCI-H23 > 100 µM | UACC-257 > 100 µM | SN12C > 100 µM | CAKI-1 > 100 µM | SF-268 > 100 µM | DMS-114 > 100 µM | XF498 > 100 µM | LXFL 529 > 100 µM | HOP-18 > 100 µM | Malme-3M > 100 µM

COc1ccc([C@H]2c3cc4c(cc3OC(O)(CO)[C@H]2C(=O)O)OCO4)c(OC)c1.COc1ccc([C@H]2c3cc4c(cc3OC3(O)COC(=O)[C@@H]23)OCO4)c(OC)c1 (some centres not stated)
inactive: NCI-H460 > 100 µM | DMS-273 > 100 µM | NCI-H23 > 100 µM | UACC-257 > 100 µM | SN12C > 100 µM | OVCAR-3 > 100 µM | SF-268 > 100 µM | DMS-114 > 100 µM | HCC 2998 > 100 µM | XF498 > 100 µM | LXFL 529 > 100 µM | HOP-18 > 100 µM | Malme-3M > 100 µM | UO-31 > 100 µM

O=C(Nc1ccc2[nH]c3c(-c4ccccc4)nccc3c2c1)c1ccccc1[N+](=O)[O-]
inactive: NCI-H460 3.45 µM | DMS-273 1.76 µM | NCI-H23 4.37 µM | UACC-257 4.11 µM | SN12C 64.6 µM | CAKI-1 5.74 µM | SF-268 3.52 µM | DMS-114 3.74 µM | HCC 2998 3.58 µM | XF498 3.59 µM | LXFL 529 6.52 µM | HOP-18 > 100 µM | Malme-3M 1.82 µM

COc1cc(/N=N\c2cccc(S(=O)(=O)O)c2)ccc1/N=N\c1ccc(/C=C/c2ccc(-n3on3-c3ccc(/C=C/c4ccc(/N=N/c5ccc(/N=N\c6cccc(S(=O)(=O)O)c6)cc5OC)cc4S(=O)(=O)O)c(S(=O)(=O)O)c3)cc2S(=O)(=O)O)c(S(=O)(=O)O)c1
inactive: NCI-H460 > 100 µM | DMS-273 > 69.5 µM | NCI-H23 > 100 µM | UACC-257 > 100 µM | SN12C > 100 µM | OVCAR-3 > 100 µM | SF-268 > 100 µM | DMS-114 > 100 µM | HCC 2998 > 100 µM | XF498 > 83 µM | HOP-18 > 100 µM | Malme-3M > 100 µM | UO-31 > 100 µM
